Patent US7375058B2, “Herbicidal mixtures based on 3-phenyluracils” (priority 2002, dated 2008)
Where a name gives a salt, the structure may show the parent alone.

Assays:
ABUTH = assay: Greenhouse post-emergence herbicidal action against ABUTH; type: in vivo, Abutilon theophrasti
Excerpt: (§1) For the post-emergence treatment, the test plants were first grown to a height of 3 to 20 cm, depending on the plant habit, and only then treated. Here, the herbicidal compositions were suspended or emulsified in water as distribution medium and sprayed using finely distributing nozzles
(§2) The respective components A and B and/or C were formulated as 10% by weight strength emulsion concentrate and introduced to the spray liquor with the amount of solvent system used for applying the active compound. In the examples, the solvent used was water.
(§3) The test period extended over 21 days. During this time, the plants were tended, and their response to the treatments with active compound was evaluated.
(§4) The evaluation for the damage caused by the chemical compositions was carried out using a scale from 0 to 100%, compared to the untreated control plants. Here, 0 means no damage and 100 means complete destruction of the plants.
(§5) In the examples below, the value E which is to be expected if the activity of the individual compounds is just additive was calculated using the method of S. R. Colby (1967) “Calculating synergistic and antagonistic responses of herbicide combinations”, Weeds 15, p. 22 ff. E=X+Y−([…]) where • X=effect in percent using active compound A at an application rate a; • Y=effect in percent using active compound B at an application rate b; • E=expected effect (in %) of A+B at application rates a+b.
(§6) If the observed effect is higher than the value E calculated according to Colby, a synergistic effect is present.

BRAPL = assay: Greenhouse post-emergence herbicidal action against BRAPL; type: in vivo, Brachiaria plantaginea
Excerpt: as §1, §2, §3, §4, §5, §6

GALAP = assay: Greenhouse post-emergence herbicidal action against GALAP; type: in vivo, Galium aparine
Excerpt: as §1, §2, §3, §4, §5, §6

ECHCG = assay: Greenhouse post-emergence herbicidal action against ECHCG; type: in vivo, Echinochloa crus-galli
Excerpt: as §1, §2, §3, §4, §5, §6

ALOMY = assay: Greenhouse post-emergence herbicidal action against ALOMY; type: in vivo, Alopecurus myosuroides; details: 21 days
Excerpt: as §1, §2, §3, §4, §5, §6

COMBE = assay: Greenhouse post-emergence herbicidal action against COMBE; type: in vivo, Commelina benghalensis
Excerpt: as §1, §2, §3, §4, §5, §6

SETFA = assay: Greenhouse post-emergence herbicidal action against SETFA; type: in vivo, Setaria faberii
Excerpt: as §1, §2, §3, §4, §5, §6

BIDPI = assay: Greenhouse post-emergence herbicidal action against BIDPI; type: in vivo, Bidens pilosa
Excerpt: as §1, §2, §3, §4, §5, §6

POLPE = assay: Greenhouse post-emergence herbicidal action against POLPE; type: in vivo, Polygonum persicaria; details: 21 days
Excerpt: as §1, §2, §3, §4, §5, §6

AMARE = assay: Greenhouse post-emergence herbicidal action against AMARE; type: in vivo, Amaranthus retroflexus
Excerpt: as §1, §2, §3, §4, §5, §6

[1] = I.14 0.49 g/ha and/or b13.3 62.5 g/ha
[2] = I.14 0.98 g/ha and/or b13.3 125 g/ha
[3] = I.14 0.49 g/ha and/or b10.3 62.5 g/ha
[4] = I.14 0.49 g/ha and/or b10.3 + c.2 62.5 + 3.13 g/ha
[5] = I.14 0.49 g/ha and/or b11.1 62.5 g/ha
[6] = I.14 0.98 g/ha and/or b10.3 125 g/ha
[7] = I.14 0.98 g/ha and/or b10.3 + c.2 125 + 6.25 g/ha
[8] = I.14 0.98 g/ha and/or b11.1 125 g/ha
[9] = I.1 0.49 g/ha and/or b14.1 7.81 g/ha
[10] = I.1 0.98 g/ha and/or b14.1 15.63 g/ha

**Q.** Which results are given for `CC(C)CN(C)S(=O)(=O)NC(=O)c1cc(-n2c(=O)cc(C(F)(F)F)n(N)c2=O)c(F)cc1Cl` [I.14]?
**A.** Herbicidal action against ABUTH found (ABUTH; [1]): 0%; Herbicidal action against ABUTH found (ABUTH; [2]): 20%; Herbicidal action against BRAPL found (BRAPL; 21 days, application rate g/ha: I.14 0.49, b2.3 0.98): 0%; Herbicidal action against BRAPL found (BRAPL; 21 days, application rate g/ha: I.14 0.98, b2.3 1.95): 0%; Herbicidal action against BRAPL found (BRAPL; [1]): 10%; Herbicidal action against BRAPL found (BRAPL; [2]): 15%; Herbicidal action against GALAP found (GALAP; [3]): 0%; Herbicidal action against GALAP found (GALAP; [4]): 0%; Herbicidal action against GALAP found (GALAP; [5]): 0%; Herbicidal action against GALAP found (GALAP; [6]): 25%; Herbicidal action against GALAP found (GALAP; [7]): 25%; Herbicidal action against GALAP found (GALAP; [8]): 25%; Herbicidal action against ECHCG found (ECHCG; I.14 1.95 g/ha and/or b13.2 125 g/ha): 40%; Herbicidal action against ECHCG found (ECHCG; I.14 3.91 g/ha and/or b13.2 250 g/ha): 70%; Herbicidal action against ALOMY found (ALOMY; application rate g/ha: I.14 0.49, b2.3 0.98): 0%; Herbicidal action against ALOMY found (ALOMY; application rate g/ha: I.14 0.98, b2.3 1.95): 0%; Herbicidal action against COMBE found (COMBE; I.14 1.95 g/ha and/or b.15.1 125 g/ha): 0%; Herbicidal action against COMBE found (COMBE; I.14 3.91 g/ha and/or b.15.1 250 g/ha): 40%; Herbicidal action against SETFA found (SETFA; [3]): 20%; Herbicidal action against SETFA found (SETFA; [4]): 20%; Herbicidal action against SETFA found (SETFA; [5]): 20%; Herbicidal action against SETFA found (SETFA; [6]): 25%; Herbicidal action against SETFA found (SETFA; [7]): 25%; Herbicidal action against SETFA found (SETFA; [8]): 25%; Herbicidal action against BIDPI found (BIDPI; 21 days, application rate g/ha: I.14 1.95, b10.2 250): 40%; Herbicidal action against BIDPI found (BIDPI; 21 days, application rate g/ha: I.14 3.91, b10.2 500): 85%

**Q.** With `CNC.C[C@@H](Oc1ccc(Cl)cc1Cl)C(=O)O` [b13.1, dichlorprop-P dimethylammonium salt, reference compound] as the compound, how does the “Herbicidal action against COMBE found” value (COMBE; 21 days, application rate g/ha: I.7 1.95, b13.1 500) read?
**A.** The value was 40%.

**Q.** And the “Herbicidal action against COMBE found” value (COMBE; 21 days, application rate g/ha: I.7 3.91, b13.1 1000)?
**A.** Its value is 75%.

**Q.** What about the “Herbicidal action against POLPE found” value (POLPE; application rate g/ha: I.7 1.95, b13.1 500) of the same compound?
**A.** Its value is 30%.

**Q.** And the “Herbicidal action against POLPE found” value (POLPE; application rate g/ha: I.7 3.91, b13.1 1000)?
**A.** Its value is 30%.

**Q.** `C/C(=N\NC(=O)Nc1cc(F)cc(F)c1)c1ncccc1C(=O)O` [b14.1, diflufenzopyr sodium salt, reference compound] was tested. Which “Herbicidal action against AMARE found” value (AMARE; [9]) did it give?
**A.** Its value is 0%.

**Q.** And the “Herbicidal action against AMARE found” value (AMARE; [10])?
**A.** Its value is 0%.

**Q.** And the “Herbicidal action against BIDPI found” value (BIDPI; [9])?
**A.** Its value is 20%.

**Q.** What about the “Herbicidal action against BIDPI found” value (BIDPI; [10]) of the same compound?
**A.** Its value is 30%.
